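Method: 48-hour compound exposure of cells in 96-well plates, five concentrations, linear interpolation of endpoints. TGI is the concentration that stops growth completely.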
What was measured:
Assay in all cases: NCI-60 cell line screen, 48 h
[1] = test system: SR leukemia
[2] = test system: SNB-75 CNS
[3] = test system: TK-10 renal
[4] = test system: UACC-257 melanoma
[5] = test system: LOX IMVI melanoma
[6] = test system: T-47D breast
[7] = test system: HCT-15 colon
[8] = test system: SF-268 CNS
[9] = test system: SN12C renal
[10] = test system: NCI-H460 lung
[11] = test system: M14 melanoma
[12] = test system: COLO 205 colon
[13] = test system: PC-3 prostate
[14] = test system: NCI-H23 lung
[15] = test system: 786-0 renal
[16] = test system: A549 NSCLC
[17] = test system: SNB-19 CNS
[18] = test system: RXF 393 renal
[19] = test system: NCI-H226 lung
[20] = test system: HT29 colon
[21] = test system: OVCAR-5 ovarian
[22] = test system: HOP-92 NSCLC
[23] = test system: SF-539 CNS
[24] = test system: UACC-62 melanoma
[25] = test system: SW-620 colon
[26] = test system: IGROV1 ovarian
[27] = test system: RPMI-8226 leukemia
[28] = test system: OVCAR-3 ovarian
[29] = test system: NCI-H522 lung
[30] = test system: OVCAR-8 ovarian
[31] = test system: HL-60(TB) leukemia
[32] = test system: HOP-62 NSCLC
[33] = test system: CCRF-CEM leukemia
[34] = test system: EKVX NSCLC
[35] = test system: NCI/ADR-RES ovarian
[36] = test system: HCC-2998 colon
[37] = test system: MDA-MB-231 breast
[38] = test system: SK-MEL-28 melanoma
[39] = test system: DU-145 prostate
[40] = test system: U251 CNS
[41] = test system: SF-295 CNS
[42] = test system: HCT-116 colon
[43] = test system: SK-MEL-5 melanoma
[44] = test system: SK-MEL-2 melanoma
[45] = test system: HS 578T breast
[46] = test system: MDA-MB-435
[47] = test system: ACHN renal
[48] = test system: MDA-N
[49] = test system: SK-OV-3 ovarian
[50] = test system: K-562 leukemia
[51] = test system: MOLT-4 leukemia
[52] = test system: MCF7 breast
[53] = test system: CAKI-1 renal
[54] = test system: MALME-3M melanoma
[55] = test system: KM12 colon
[56] = test system: OVCAR-4 ovarian

COC(=O)c1ccccc1C1=C([N+](=O)[O-])C(c2cccc(Br)c2)C(C#N)=C(N)O1 (centres undefined)
TGI [1]: > 100 µM | TGI [2]: 92.6 µM | TGI [3]: > 100 µM | TGI [4]: > 100 µM | TGI [5]: 38.1 µM | TGI [6]: 84.6 µM | TGI [7]: 41 µM | TGI [8]: 93.3 µM | TGI [9]: > 100 µM | TGI [10]: > 100 µM | TGI [11]: 77.5 µM | TGI [12]: > 100 µM | TGI [13]: > 100 µM | TGI [14]: 88.2 µM | TGI [15]: 63.2 µM | TGI [16]: > 100 µM | TGI [17]: > 100 µM | TGI [18]: 41.9 µM | TGI [19]: > 100 µM | TGI [20]: > 100 µM | TGI [21]: > 100 µM | TGI [22]: 62.1 µM | TGI [23]: > 100 µM | TGI [24]: 42.7 µM | TGI [25]: 71.4 µM | TGI [26]: 77.6 µM | TGI [27]: > 100 µM | TGI [28]: 51.7 µM | TGI [29]: 29.2 µM | TGI [30]: 45.1 µM | TGI [31]: 70.6 µM | TGI [32]: > 100 µM | TGI [33]: 61.8 µM | TGI [34]: 97.7 µM | TGI [35]: 65.9 µM | TGI [36]: > 100 µM | TGI [37]: > 100 µM | TGI [38]: > 100 µM | TGI [39]: > 100 µM | TGI [40]: > 100 µM | TGI [41]: > 100 µM | TGI [42]: 92.9 µM | TGI [43]: > 100 µM | TGI [44]: > 100 µM | TGI [45]: 56.9 µM | TGI [46]: 57.4 µM | TGI [47]: 43.4 µM | TGI [48]: > 100 µM | TGI [49]: > 100 µM | TGI [50]: 76.5 µM | TGI [51]: > 100 µM

COc1ccc2nc3c([N+](=O)[O-])ccc(NCCN(C)C)c3c(NCCN(C)C)c2c1
TGI [1]: 0.634 µM | TGI [52]: 1.84 µM | TGI [2]: 3.51 µM | TGI [3]: > 10 µM | TGI [4]: > 10 µM | TGI [5]: 3.11 µM | TGI [6]: > 10 µM | TGI [7]: 2.59 µM | TGI [8]: > 10 µM | TGI [9]: 2.78 µM | TGI [11]: > 10 µM | TGI [12]: > 10 µM | TGI [13]: 2.02 µM | TGI [53]: > 10 µM | TGI [14]: 3.04 µM | TGI [15]: 1.98 µM | TGI [16]: 4.26 µM | TGI [54]: 7.69 µM | TGI [18]: 2.33 µM | TGI [20]: 4.51 µM | TGI [22]: > 10 µM | TGI [24]: > 10 µM | TGI [25]: 3.25 µM | TGI [26]: 5.13 µM | TGI [27]: 1.97 µM | TGI [30]: 3.04 µM | TGI [31]: 3.02 µM | TGI [32]: 2.73 µM | TGI [33]: 1.78 µM | TGI [34]: 4.59 µM | TGI [36]: 2.25 µM | TGI [37]: 2.67 µM | TGI [38]: 4.15 µM | TGI [55]: 2.82 µM | TGI [39]: > 10 µM | TGI [41]: 3.03 µM | TGI [43]: 3.28 µM | TGI [46]: 3.01 µM | TGI [56]: 1.86 µM | TGI [48]: 3.13 µM | TGI [49]: > 10 µM | TGI [50]: 3.42 µM | TGI [51]: 0.732 µM

Source: PubChem BioAssay (NCI)
